The subject of series [1] is human prostatic carcinoma cells, PC-3 (subcutaneous xenografts). Briefly: subcutaneous PC-3 xenografts in nude mice, tumor volume. In kind it is in vivo, NCr athymic nude mice. How it is done: Pathogen-free 4 to 6 week-old male NCr athymic nude mice (Taconic, Germantown, N.Y.) were housed in sterilized, filter-topped cages kept in laminar flow isolators (Forma Scientific, Marietta, Ohio), and fed autoclaved food and water ad libitum. Four animals were housed in each cage. Mice were acclimated to the vivarium for one week prior to their use in study protocols. All procedures involving the mice were performed under sterile conditions in a laminar flow hood (Forma Scientific). All studies were approved by the institutional animal care and use committee.
Human PC-3 prostate cancer cells (2×10^6 cells; American Type Culture Collection CRL-1435) were inoculated subcutanteously into the flanks of nude mice in 0.1 ml HBSS (Hank's balanced salt solution) (Life Technologies). For implantation of orthotopic 201T cells, animals were fully anesthetized in a Harvard small animal anesthesia chamber using nebulized Metafane (Pitman Moore, Inc., Washington Crossing, N.J.). […] The needle was advanced through the chest wall into the lung tissue, and the tumor cell inoculum of 2×10^6 cells was then dispersed in a final volume of 0.1 ml HBSS/Matrigel (1:1 ratio). Animals were allowed to recover from anesthesia for approximately 10 min under heat lamps to maintain body temperature. The orthotopic implantation technique is further described in Hamide et al., 1997. For tumors implanted subcutaneously, tumors were measured in a blind fashion with dial calipers, and the volume was calculated using the formula ½*π(W*L*H).
Potential anti-angiogenic and anti-tumor effects of the PAF antagonist BN-50730 were tested on human tumor xenografts in the NCr athymic nude mice. Thirty mice were implanted with subcutaneous human prostatic carcinoma cells, PC-3, at day 0, and were randomized into three groups. Mice were treated either with a placebo, 30 mg/kg BN-50730, or 60 mg/kg BN-50730 at days 2, 4, 6, 8, 10, and 12 as shown in the schedule of FIG. 2b. Animals were sacrificed at day 13, 17, 21 and 28, and the volumes of the subcutaneous tumors were measured using dial calipers and the formula ½*π(W*L*H) as described in Example 1.
In a separate experiment to determine the effects of a high dose of LAU-8080 dissolved in 2-hydroxypropyl-β-cyclodextran (instead of DMSO) on PC-3 xenografts, mice were treated as shown in FIG. 4b. Tumors were implanted subcutaneously at day 0. The mice were then divided into two groups to receive injections of either a placebo or 120 mg/kg LAU-8080 on days 1, 3, 5, 8, 10, and 12. Mice were sacrificed on days 6, 8, 11, 13, 15, 18, 20, 21, and 25; and the volumes of the tumors were measured as described above.
Tumors were implanted at day 0. The tumors were allowed to expand to 100 mm^3 before treatment was initiated as shown in the schedule in FIG. 10b. Tumor measurements were begun on day 9. Treatments of the different groups were on days 13, 15, 17, 20, 22, 24, 27, 29, and 31. Tumor measurements were taken on days 13, 16, 20, 24, 27, 31, 37, and 40.

In series [2] the test system is PAF binding sites (microsomal intracellular membranes; synaptosomal plasma membrane). As to conditions: Marcheselli and Bazan, 1994; cited from earlier work.
Series [3] deals with human umbilical vein endothelial cells (HUVEC). Briefly: HUVEC proliferation, [3H]thymidine incorporation. In kind it is cell-based. As for the experimental part:
Human umbilical vein endothelial cells (“HUVEC”) were propagated in one of three growth media depending on the experimental conditions. HUVEC were maintained in endothelial basal medium (“EBM-2”) (Clonetics, Walkersville, Md.) supplemented with 2% FBS (Clonetics). HUVEC were also grown in endothelial growth medium (“EGM”) (Clonetics), which contained 3 mg/ml (protein content) bovine brain extract, 10 ng/ml EGF ([…]), 1 μg/ml hydrocortisone, 2% FBS, gentamicin, and amphotericin-B. HUVEC were likewise grown in EGM-2, supplemented with VEGF ([…]), R^3-IGF-1 (long recombinant-3 insulin-like growth factor-1), ascorbic acid, heparin, 2% FBS, EGF, bFGF, gentamicin, and amphotericin-B.
Based on the above in vitro tumor data, the effect of BN-50730 on tumor growth is believed to result from inhibition of angiogenesis. To test this theory, the effect of BN-50730 on angiogenesis of HUVEC cells was measured using two growth media designed to induce rapid proliferation, EGM or EGM-2. HUVEC growth was measured by [^3H]thymidine incorporation into DNA.
As many tumors are known to produce angiogenesis-inducing factors, an experiment was conducted to test for increased proliferation of HUVEC cells exposed to 201T-conditioned medium. 201T cells were allowed to condition basal medium (EBM supplemented with 2% FBS) for 48 hr. […] EGM-2 is a medium containing the growth factors bFGF, VEGF, IGF-1, and EGF.
To characterize the inhibitory effects of BN-50730 on HUVEC proliferation, a series of growth assays was performed in which growth factors were either added or omitted singly from the growth medium in the presence or absence of BN-50730. The cells were grown in a medium supplemented with [^3H]thymidine, in either the presence or absence of BN-50730. Cells that proliferate will incorporate [^3H]thymidine into their DNA. In the first experiment, individual growth factors VEGF, IGF-1, bFGF, or EGF were added to EBM-2 supplemented with 2% FBS. […] This experiment supports the hypothesis that different cellular mechanisms use different peptide growth factors.
In a subsequent experiment, mixtures of the growth factors were analyzed, with only one growth factor absent from the medium, and each of the other three were present, in the presence or absence of 10 μM BN-50730. […] However, no reduction was seen when bFGF was absent.
(Uptake of a labelled nucleoside into DNA is a usual measure of proliferation.)

Data on 1 compound can be found in patent US6979682B2, “Platelet-activating factor antagonist inhibition of angiogenesis and tumor growth induced by basic fibroblast” (Board of Supervisors of Louisiana State University and …, priority 2001, dated 2005).

Molecules are shown by their SMILES.

For `COc1ccc(NC(=O)N2CCc3c(sc4c3C(c3ccccc3Cl)=NCc3nnc(C)n3-4)C2)cc1` [BN-50730, tetrahydro-4,7,8,10 methyl-1 (chloro-2 phenyl)-6 (methoxy-4 phenyl-carbomoyl)-9 pyrido [4′,3′-4,5] thieno [3,2-f] triazolo-1,2,4[4,3-α]diazepine-1,4], in series [1] (30 mg/kg or 60 mg/kg at days 2, 4, 6, 8, 10, 12, measured day 13, 17, 21, 28, vs placebo, p<0.001), the “tumor size (volume) of subcutaneous PC-3 xenografts” value is reported as “significant dose-dependent reduction in tumor size”. The “tumor volume of subcutaneous PC-3 xenografts, high dose” value in series [1] (120 mg/kg in 2-hydroxypropyl-β-cyclodextran on days 1, 3, 5, 8, 10, 12, vs placebo, p=0.0001, F-test) is “significantly smaller tumors”. In series [1] (120 mg/kg on days 1, 3, 5, 8, 10, 12, PC-3 xenografts), the “time at which tumors began to increase in size” value is reported as “did not begin to increase in size until after treatment was stopped at day 12”. Moreover, the “tumor size, BN-50730-treated vs IFN-2a-treated mice” value in series [1] (established PC-3 xenografts, 120 mg/kg vs 1,000 U, p=0.089, F-test) is given as “no significant difference”. The “tumor size of established PC-3 xenografts vs control animals” value in series [1] (tumors expanded to 100 mm^3 before treatment, treatment days 13-31, 120 mg/kg BN-50730 and/or 1,000 U IFN-2a, p<0.001, F-test) is reported as “significantly smaller tumors”. In series [2], the “displacement of PAF from microsomal membranes” value was “displace PAF from microsomal membranes” and the “displacement of PAF from the synaptosomal, plasma membrane” value was “not from the synaptosomal, plasma membrane”. In series [3] (5 μM, both growth conditions, p=0.001, Student's t-test), the “HUVEC growth in EGM or EGM-2 medium” value is “significantly reduced the growth of HUVEC”. Further, the “stimulation of HUVEC growth in 201T-conditioned medium or EGM-2 medium” value in series [3] (5 μM, either medium) is on record as “inhibited”. Also, in series [3] (10 μM, EBM-2 + 2% FBS + EGF), the “HUVEC growth in medium containing EGF as single growth factor” value is recorded as “No difference”. Besides, in series [3] (10 μM, EBM-2 + 2% FBS + IGF-1), the “HUVEC growth in medium containing IGF-1 as single growth factor” value was “No difference”. Also, in series [3] (10 μM, EBM-2 + 2% FBS + VEGF, p=0.036), the “HUVEC growth in medium containing VEGF as single growth factor” value is recorded as “small, but significant”. In series [3] (10 μM, EBM-2 + 2% FBS + bFGF, p=0.0002), the “HUVEC growth in medium containing bFGF as single growth factor” value is “larger reduction”. Besides, in series [3] (10 μM, VEGF, IGF-1 and EGF present), the “HUVEC growth in medium with bFGF absent” value is “no reduction”. The “HUVEC growth in medium lacking only VEGF, IGF-1 or EGF” value in series [3] (10 μM, other three growth factors present) was “reduction in growth”.
